Results taken from ChEMBL document CHEMBL3734729, “Synthesis and comparison of the biological activity of monocyclic phosphonate, difluorophosphonate and phosphate analogs of the natural AChE inhibitor cyclophostin” (Bioorg Med Chem, 2015).

What was measured:
Acetylcholinesterase [1] = target: T1, Acetylcholinesterase (Homo sapiens, UniProt P22303); assay: Inhibition of human AChE at pH 6
Acetylcholinesterase [2] = target: T1, Acetylcholinesterase; assay: Inhibition of human AChE at pH 8
[3] = Drug degradation in sodium phosphate buffer at pH 7 after 24 hrs by NMR analysis; type: physicochemical; settings: read-out: Drug degradation
[4] = Drug degradation in sodium phosphate buffer at pH 7 after 30 mins by NMR analysis; type: physicochemical; settings: read-out: Drug degradation
[5] = Drug degradation in sodium phosphate buffer at pH 8 after 1 hr by NMR analysis; type: physicochemical; settings: read-out: Drug degradation
[6] = Drug degradation in MES buffer at pH 6.5 after 30 mins by NMR analysis; type: physicochemical; settings: read-out: Drug degradation
[7] = Drug degradation in MES buffer at pH 6 after 1 hr by NMR analysis; type: physicochemical; settings: read-out: Drug degradation
[8] = Drug degradation in sodium phosphate buffer at pH 7 after 1 hr by NMR analysis; type: physicochemical; settings: read-out: Drug degradation
[9] = Drug degradation in MES buffer at pH 6.5 after 1 hr by NMR analysis; type: physicochemical; settings: read-out: Drug degradation
[10] = Drug degradation in sodium phosphate buffer at pH 8 after 24 hrs by NMR analysis; type: physicochemical; settings: read-out: Drug degradation
[11] = Drug degradation in MES buffer at pH 6 after 24 hrs by NMR analysis; type: physicochemical; settings: read-out: Drug degradation
[12] = Drug degradation in MES buffer at pH 6 after 30 mins by NMR analysis; type: physicochemical; settings: read-out: Drug degradation
[13] = Drug degradation in sodium phosphate buffer at pH 8 after 30 mins by NMR analysis; type: physicochemical; settings: read-out: Drug degradation
Acetylcholinesterase [14] = target: T1, Acetylcholinesterase; assay: Inhibition of AChE (unknown origin)
Acetylcholinesterase [15] = target: T1, Acetylcholinesterase; assay: Irreversible inhibition of AChE (unknown origin)
Acetylcholinesterase [16] = target: Acetylcholinesterase (Musca domestica, UniProt Q7YWJ9); assay: Inhibition of housefly CSMA AChE
Acetylcholinesterase (Musca domestica, UniProt Q7YWJ9), sequence (Q7YWJ9 whole entry): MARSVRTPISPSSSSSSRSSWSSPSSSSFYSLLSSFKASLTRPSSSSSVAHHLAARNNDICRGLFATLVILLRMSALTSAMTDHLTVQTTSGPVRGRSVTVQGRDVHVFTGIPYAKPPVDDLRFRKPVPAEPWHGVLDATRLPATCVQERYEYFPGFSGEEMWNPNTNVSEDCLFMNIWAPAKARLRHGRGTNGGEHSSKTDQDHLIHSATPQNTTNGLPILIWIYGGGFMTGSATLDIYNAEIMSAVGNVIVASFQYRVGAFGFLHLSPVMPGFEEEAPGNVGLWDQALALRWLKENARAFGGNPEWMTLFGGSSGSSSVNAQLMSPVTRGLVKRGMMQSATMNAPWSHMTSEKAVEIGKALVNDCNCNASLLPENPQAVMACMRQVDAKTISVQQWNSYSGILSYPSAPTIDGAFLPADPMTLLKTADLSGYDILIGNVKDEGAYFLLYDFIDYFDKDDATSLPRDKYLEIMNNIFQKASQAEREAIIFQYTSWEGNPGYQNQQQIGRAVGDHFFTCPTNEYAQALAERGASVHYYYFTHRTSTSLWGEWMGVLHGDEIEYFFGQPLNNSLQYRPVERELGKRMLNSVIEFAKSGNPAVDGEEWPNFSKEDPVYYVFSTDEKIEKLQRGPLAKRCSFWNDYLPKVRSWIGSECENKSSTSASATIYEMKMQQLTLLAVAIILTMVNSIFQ

T1 sequence (P22303 whole entry): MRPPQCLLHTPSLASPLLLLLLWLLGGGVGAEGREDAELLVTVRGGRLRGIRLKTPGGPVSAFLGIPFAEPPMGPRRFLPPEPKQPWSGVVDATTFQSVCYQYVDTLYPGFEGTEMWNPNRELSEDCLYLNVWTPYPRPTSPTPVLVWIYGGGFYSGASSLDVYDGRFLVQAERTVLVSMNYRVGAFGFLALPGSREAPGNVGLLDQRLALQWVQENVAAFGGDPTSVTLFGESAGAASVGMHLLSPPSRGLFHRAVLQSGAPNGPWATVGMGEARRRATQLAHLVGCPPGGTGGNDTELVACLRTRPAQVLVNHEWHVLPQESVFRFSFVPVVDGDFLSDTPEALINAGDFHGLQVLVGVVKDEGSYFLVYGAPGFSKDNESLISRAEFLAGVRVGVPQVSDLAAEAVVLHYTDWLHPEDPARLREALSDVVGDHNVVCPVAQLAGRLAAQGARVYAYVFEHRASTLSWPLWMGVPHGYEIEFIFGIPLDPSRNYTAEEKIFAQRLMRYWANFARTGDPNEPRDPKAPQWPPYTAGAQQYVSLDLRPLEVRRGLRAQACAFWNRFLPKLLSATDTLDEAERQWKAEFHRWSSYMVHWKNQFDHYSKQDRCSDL

Structure (SMILES) | IC50 (Acetylcholinesterase [1]) | IC50 (Acetylcholinesterase [2]) | degraded at 1 h [5] | degraded at 24 h [10] | degraded at 0.5 h [13] | further results
COP1(=O)OCCC(C(=O)OC(C)(C)C)=C(C)O1 (configuration not stated) | 6.1 µM | 5.9 µM | – | – | – | –
CCOP1(=O)OC(C)=C(C(=O)OC)CCC1(F)F (configuration not stated) | > 100 µM | > 100 µM | 50% | 100% | 5% | degraded at 24 h [3]: 100%; degraded at 0.5 h [4]: 20%; degraded at 0.5 h [6]: 2.8%; degraded at 1 h [7]: 4.1%; degraded at 1 h [8]: 34%; degraded at 1 h [9]: 7.2%; degraded at 24 h [11]: 65%; degraded at 0.5 h [12]: 0.5%
COC(=O)C1=C(C)OP(=O)(OC)OCC1 (configuration not stated) | 1.04 µM | 1.03 µM | 4% | 57% | 0% | –
CCOP1(=O)CCCC(C(=O)OC)=C(C)O1 (configuration not stated) | 8.9 µM | 7.5 µM | – | – | – | –
COC(=O)C1=C(C)OP(=O)(OC)CCC1 (configuration not stated) | 26 µM | 12 µM | 2% | 9.6% | 2% | –
COP1(=O)OC[C@H]2COC(=O)C2=C(C)O1 (single isomer, unassigned) [CYCLOPHOSTIN] | – | 0.04 µM | – | – | – | IC50 (Acetylcholinesterase [14]): 0.045 µM; Ki (Acetylcholinesterase [15]): 0.14 µM; IC50 (Acetylcholinesterase [16]): 0.00076 µM
COP1(=O)OC[C@@H]2COC(=O)C2=C(C)O1 (single isomer, unassigned) | – | 0.035 µM | – | – | – | –
